Measurements from paper PMC8269059, “Glycyrrhizin Derivatives Suppress Cancer Chemoresistance by Inhibiting Progesterone Receptor Membrane Component 1” (Cancers, 2021).
“And” between values parts separate entries of the source, which are not always exact repeats. Identical values can stand only once. “Also recorded” adds a separate entry of the source. Like-named read-outs stand apart in the source and are kept apart here.

Experiments:
apo-PGRMC1 = target: T1, apo-PGRMC1 (Homo sapiens, UniProt O00264); assay: ITC binding to apo-PGRMC1; conditions: apo-monomer form
T1 construct: human PGRMC1 intracellular domain residues 43-195; GST (N, cleaved yes); made in house; host or cells: E. coli BL21 (DE3)
Source text: Bacterial expression vectors pGEX-PGRMC1 (human PGRMC1 intracellular domain residues 43-195) and mammalian FLAG-tagged expression vector pCMV-FLAG-PGRMC1 (full-length) were constructed as described previously. Expression vectors for PGRMC1 point mutants were generated by site-directed mutagenesis with PCR. For construction of HMGB1 expression vector, human HMGB1 full-length cDNA was cloned from cDNA library of HCT116 cells using the primers (Forward: 5′-[…]-3′, Reverse: 5′-[…]-[…]-3′), digested with Bam HI and Sal I, and then ligated into pGEX6P1.
Expression vectors (pGEX-PGRMC1 (residues 43-195) or pGEX-HMGB1) were transformed into BL21 (DE3) competent E. coli cells, and the cells incubated in LB medium with ampicillin at 37 °C until the OD600 reached 0.8. Protein expression was induced by adding 1 mM isopropyl-β-thiogalactopyranoside (IPTG) and incubating at 37 °C for 4 h. […]
ITC experiments were performed at 298 K with ITC-Buffer (50 mM phosphate [pH 7.0]) using a MicroCal iTC200 (Malvern Panalytical, Malvern, UK). […] Binding isotherms were analyzed using SEDPHAT [35]. The binding of AG205 to apo- or heme-PGRMC1 (100 μM) was analyzed using a concentration of 3 mM containing 1% DMSO. […]

heme-dimerized PGRMC1 = target: T2, heme-dimerized PGRMC1 (Homo sapiens, UniProt O00264); assay: ITC binding to heme-dimerized PGRMC1; conditions: ITC; for KD / Kd: 298 K, 50 mM phosphate pH 7.0, heme-dimerized PGRMC1 (WT); for TΔS / ΔG / ΔH: heme-dimerized PGRMC1 (WT)
T2 construct: human PGRMC1 intracellular domain residues 43-195; GST (N, cleaved yes); made in house; host or cells: E. coli BL21 (DE3)

HCT116 cells = assay: Chemosensitivity MTT assay in HCT116 cells; format: cell-based, human; conditions: for Anti-proliferative / anti-cancer effect with anti-cancer agents: HCT116, MTT, with erlotinib or CDDP, compared with GL; for IC50: Homo sapiens, HCT-116, HCT116 cell viability, MTT
HCT116 cells xenograft = assay: HCT116 xenograft in nude mice; format: in vivo, mouse; conditions: i.p. twice a week, 22 days, CDDP 2 mg/kg, GL 400 mg/kg, vs control
Procedure: All protocols for animal experiments in this study were approved by the Experimental Animal Committee of Keio University School of Medicine (approval number: 08024-(13), approval date: 30 September 2020). HCT116 cells (2 × 10^6 cells/mouse) with half of Matrigel (Corning, NY, USA) were transplanted subcutaneously into the flank of 7-week-old nude mice. Four days after the transplantation, tumor size was measured in three dimensions with calipers and grouped by tumor volume. CDDP (2 mg/kg), GL (400 mg/kg), or GlucoGL (100 mg/kg) were administered to the mice intraperitoneally, and the tumor volume was measured twice a week for 22 days.

[1] = tested on: GFP-fused PGRMC1 protein partially purified from granulosa cells; conditions: competitive binding with labeled-progesterone; cited from earlier work
[2] = with CDDP (10 µM), read-out: IC50 CDDP
[3] = with erlotinib (20 µM), read-out: IC50 Erlotinib

T2 sequence (O00264 43-195): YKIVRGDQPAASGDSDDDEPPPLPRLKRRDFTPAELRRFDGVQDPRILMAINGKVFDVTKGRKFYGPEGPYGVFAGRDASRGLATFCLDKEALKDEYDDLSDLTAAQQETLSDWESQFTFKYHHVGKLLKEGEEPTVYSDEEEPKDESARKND
T1 sequence (O00264 43-195): as above

SMILES | KD (heme-dimerized PGRMC1) | Anti-proliferative / anti-cancer effect with anti-cancer agents (HCT116 cells) | IC50 (HCT116 cells; [2]) | IC50 (HCT116 cells; [3]) | Kd (heme-dimerized PGRMC1) | TΔS (heme-dimerized PGRMC1) | ΔG (heme-dimerized PGRMC1) | ΔH (heme-dimerized PGRMC1) | further results
Cc1ccc2c(c1)[C@H]1CN(C)CC[C@H]1N2C(=O)CSc1nnnn1-c1ccc(Cl)cc1 [AG205] | no binding activity; also recorded: did not observe AG205 binding |  |  |  |  |  |  |  | Binding to apo-PGRMC1 (apo-PGRMC1): no binding activity; also recorded: did not observe AG205 binding
CC1(C(=O)O)CCC2(C)CCC3(C)C(=CC(=O)C4C5(C)CCC(OC6OC(C(=O)O)C(O)C(O)C6OC6OCC(O)(CO)C6O)C(C)(C)C5CCC43C)C2C1 (centres unmarked) [Apioglycyrrhizin] |  | potent anti-cancer effects | 35.1 µM | 62.5 µM | 4.85 µM | 6.18 K·kcal/mol | -30.4 kJ/mol | -4.52 kJ/mol | 
CC1(C(=O)O)CCC2(C)CCC3(C)C(=CC(=O)C4C5(C)CCC(OC6OC(C(=O)O)C(O)C(O)C6OC6OCC(O)C(O)C6O)C(C)(C)C5CCC43C)C2C1 (centres unmarked) [Araboglycyrrhizin] |  | potent anti-cancer effects | 26.6 µM | 35.3 µM | 8.46 µM | 5.90 K·kcal/mol | -29 kJ/mol | -4.31 kJ/mol | 
[NH2][Pt]([NH2])([Cl])[Cl] [CDDP, cisplatin] |  |  |  |  |  |  |  |  | Tumor volume, administered individually (HCT116 cells xenograft): no differences in tumor volume
CC1(C)[C@@H](OC(=O)CCC(=O)O)CC[C@]2(C)[C@H]3C(=O)C=C4[C@@H]5C[C@@](C)(C(=O)O)CC[C@]5(C)CC[C@@]4(C)[C@]3(C)CC[C@@H]12 [Carbenoxolone] | No Binding | weaker anti-proliferative effects |  |  |  |  |  |  | 
CC1(C)[C@@H](O)CC[C@]2(C)[C@H]3C(=O)C=C4[C@@H]5C[C@@](C)(C(=O)O)CC[C@]5(C)CC[C@@]4(C)[C@]3(C)CC[C@@H]12 [Glycyrrhetinic acid (GA), Glycyrrhetinic acid] | Weak Binding |  |  |  |  |  |  |  | KD (heme-dimerized PGRMC1; listed as GA): did not detect significant binding
CC1(C(=O)O)CCC2(C)CCC3(C)C(=CC(=O)C4C5(C)CCC(OC6OC(C(=O)O)C(O)C(O)C6O)C(C)(C)C5CCC43C)C2C1 (centres unmarked) [Glycyrrhetinic acid-3-O-mono-glucuronide] |  |  | 41.2 µM | 50.5 µM | 9.55 µM | 6.23 K·kcal/mol | -28.7 kJ/mol | -2.59 kJ/mol | 
CC1(C(=O)O)CCC2(C)CCC3(C)C(=CC(=O)C4C5(C)CCC(OC6OC(C(=O)O)C(O)C(O)C6OC6OC(C(=O)O)C(O)C(O)C6O)C(C)(CO)C5CCC43C)C2C1 (centres unmarked) [Licorice-saponin G2] |  | weaker anti-proliferative effects |  |  | 128 µM | 4.08 K·kcal/mol | -22.2 kJ/mol | -5.15 kJ/mol | 
CC1(C(=O)O)CCC2(C)CCC3(C)C(=CC(=O)C4C5(C)CCC(OC6OC(C(=O)O)C(O)C(O)C6OC6OC(C(=O)O)C(O)C(O)C6O)C(C)(C)C5CCC43C)C2C1 (centres unmarked) [Licorice-saponin H2] | No Binding | weaker anti-proliferative effects |  |  |  |  |  |  | 
CC12CCC3(C)C(=CC(=O)C4C5(C)CCC(OC6OC(C(=O)O)C(O)C(O)C6OC6OC(C(=O)O)C(O)C(O)C6O)C(C)(C)C5CCC43C)C1CC(C)(C(=O)O)C(O)C2 (centres unmarked) [Macedonoside A] | No Binding | weaker anti-proliferative effects |  |  |  |  |  |  | 
CC(=O)[C@H]1CC[C@H]2[C@@H]3CCC4=CC(=O)CC[C@]4(C)[C@H]3CC[C@]12C [Progesterone] |  |  |  |  | 815 µM and 816 µM |  | -17.7 kJ/mol | -97.32 kJ/mol | Kd [1]: 0.035 µM
CC1OC(OC2C(OC3C(OC4CCC5(C)C(CCC6(C)C5C(=O)C=C5C7CC(C)(C(=O)O)CCC7(C)CCC56C)C4(C)C)OC(C(=O)O)C(O)C3O)OC(CO)C(O)C2O)C(O)C(O)C1O (centres unmarked) [Rhaoglucoglycyrrhizin] |  | potent anti-cancer effects | 17.2 µM | 19.1 µM | 1.08 µM | 6.08 K·kcal/mol | -34.1 kJ/mol | -8.66 kJ/mol | 
